US9155759B2, “Heterochain aliphatic poly-N-oxide copolymers and vaccinating agents and drugs based thereon” (priority 2010, dated 2015)
Marks after values point to notes of the source that are not given here.

What was measured:
[1] = Antidotal properties at acute CuSo4 poisoning; type: in vivo
Protocol: The investigation was done in vivo at an acute CuSo4 poisoning. The preparations are administered to 7 groups of animals of which a normal saline solution is administered to the animals of the first group, CuSo4 alone in the doses fatal for animals (mg/kg): 12.5; 25.0; and 50.0 to the animals of groups 2÷4, and the similar CuSo4 doses in combination with the similar doses of CP—NO-3-1 are administered to the animals of groups 5÷7.
The results of investigations presented in table 4 testify to a pronounced antidotal effect of CP—NO.

erythrocytes = experiment: Quartz (SiO2) erythrocyte hemolysis model; type: cell-based, Human; conditions: for Protection from hemolysis / Hemolysis: SiO2 3 mg; for Hemolysis: 1 hour, 37° C.
Protocol: The investigation was done on a model of quartz (SiO2) erythrocyte hemolysis using the international standard of quartz dust DQ-12 having a dispersion degree of less than 3 μm according to the A. David method (1976). Human blood was taken with heparin, erythrocytes were thrice washed in a 10-fold volume of a water-white Henx solution followed by centrifuging at 3000 rpm for 10 min. An erythrocyte suspension was resuspended to a 4% concentration ([…]). All investigations were done in 3÷5 parallel assays. The samples of SiO2 and erythrocytes were taken under continuous agitation on a magnetic agitator.
1 ml of a 4% erythrocyte suspension was mixed with 1 ml of the investigated preparation adding 1 ml of 0.3% (3 mg/ml) of a SiO2 suspension and incubated for 1 hour at a temperature of 37° C. carefully shaking the samples every 5 minutes. After incubation all samples were added with 7 ml of a buffer, it was centrifuged and the supernatant was photometered on SF-26 at 540 nm. The results of hemolysis were expressed in percents taking as 100% the content of hemoglobin in the samples of 1 ml of a 4% erythrocyte suspension with 9 ml of distilled water. The protective effect of the investigated preparations was calculated according to the formula and expressed in percents: […]
E540 K SiO2 is extinction of the control samples—a “water-silicon-erythrocytes” test tube.
A property of CP—NO to protect erythrocytes from hemolysis was compared to high molecular plasma-substituting solutions of polyvinylpyrrolidone (hemodez), dextran (polyglucin) and albumin. As a buffer, a water-white Henx solution was used.

Molecule: O=S(=O)([O-])[O-].[Cu+2] [CuSO4]
- % of animal death at days 1-2 ([1]; CuSO4 12.5 mg/kg alone): 100%
- Animal survivability at day 30 ([1]; CuSO4 12.5 mg/kg alone): 0%
- % of animal death at days 1-2 ([1]; CuSO4 25.0 mg/kg alone): 100%
- Animal survivability at day 30 ([1]; CuSO4 25.0 mg/kg alone): 0%
- % of animal death at days 1-2 ([1]; CuSO4 50.0 mg/kg alone): 100%
- Animal survivability at day 30 ([1]; CuSO4 50.0 mg/kg alone): 0%

Molecule: Albumin
- protective properties against hemolysis (in words) (erythrocytes; comparison detoxicants): a pronounced effect is achieved only in high doses
- Protection from hemolysis (erythrocytes; dose 100 μg/ml): 18.0%
- Hemolysis (erythrocytes; dose 100 μg/ml): 82.0%
- Protection from hemolysis (erythrocytes; dose 1000 μg/ml): 86.5* %
- Hemolysis (erythrocytes; dose 1000 μg/ml): 13.5* %
